# pEC50: −log10 of the molar value. Values joined by “and” are separate entries in the source; they are usually repeats but may differ in a detail not shown here. Equal entries are not always repeated. Where two headings read alike, the source gives them in different places.
# Columns and labels:
# human PPARα = tested on: human PPARα; parameters: method as in PMID 16038868; conditions: reporter cell assay; read-out: EC50, activation of transcription through human PPARα; cited from earlier work
# [1] = for Body weight, Mean ± SD / Liver-somatic index, Mean ± SD: E12; for Body weight / Liver weight / Liver-somatic index: group mean
# Experimental: The experimental procedures in this study were approved by the Uppsala Ethical Committee for Research on Animals (Permit number C 211/12). Fertilized chicken eggs (Gallus gallus domesticus) were obtained from a local breeder (Ova Production AB, Vittinge, Sweden). The egg weights were 60 ± 4 g (mean and standard deviation). The eggs were incubated at 37.5°C and 60% relative humidity with automatic turning every six hours. The day the eggs were placed in the incubator was defined as embryonic day zero (E0). Chicken embryos were exposed to test substances by air sac injection in eggs incubated for seven days (E7). At this stage, the extraembryonic allantoic blood vessel network has grown to cover the inner shell membrane beneath the air sac and the injected substance will come in direct contact with the vascular network. The exposures were performed as follows: Unfertilized eggs and poorly developing embryos were recognized by candling and were sorted out. Eggs with embryos of normal size were collected and randomly distributed into the different treatment groups. On E7, the blunt end of each egg was wiped with alcohol and a small hole was drilled through the shell above the air sac. The dissolved test substance (20 μl) was deposited onto the inner shell membrane in the air sac and the hole was sealed with melted paraffin wax. Following injection, eggs were held horizontally and rotated for a few seconds to allow dispersal over the inner shell membrane in the air sac. Each egg was marked with a number specifying the treatment group and was placed at a random location in the incubator.
# The doses were 150 μg/egg (approximately 2.5 mg/kg egg) for GW7647 and rosiglitazone and 50, 250 or 1000 μg/egg for PFOA (approximately 0.83, 4.2 and 18 mg/kg egg, respectively). Controls were injected with 20 μL vehicle only (DMSO). Due to the large number of embryos required, the experiment was divided into four replicate experiments (replicate A-D) performed the same way but on separate occasions. The number of exposed embryos was 10–15 for each treatment group and replicate.
# Embryos and livers were weighed and the liver-somatic index was calculated (100 x liver weight/body weight). Livers were collected from the control group and from each of the PFOA groups for determination of PFOA concentrations. These livers were stored at -20°C and later extracted and analyzed as described below. Four females and four males from each PFOA group (except the 1000 μg/egg group) and from the control group were also randomly chosen for evaluation of signs of overt liver toxicity using liver histology (method described in S1 Methods).
# The software GraphPad Prism version 5 (GraphPad Software Inc, San Diego, CA, USA) was used for univariate and bivariate statistics. Mortality rates were analyzed with Fisher’s exact test. Body weight, liver-somatic index and concentrations of plasma lipids were initially analyzed using two-way analysis of variance (two-way ANOVA) with treatment and sex (or treatment and replicate) as independent variables. […] Metabolites were selected by multivariate methods as described below and differences in concentrations (treatment groups vs control group as well as females vs males) were then tested using Student’s t-test. The results of these t-tests on metabolite concentrations were used in an exploratory way to find candidate metabolites and for that reason the p-values were not corrected for multiple comparisons.
# [2] = Determination of PFOA in blood plasma (UPLC-MS/MS); assay type: in vivo, Gallus gallus domesticus; conditions: E12; for concentration at 5 d: chicken, plasma, other: air sac injection in ovo
# Experimental: Controls were injected with 20 μL vehicle only (DMSO).
# Plasma was collected and stored at -70°C.
# The concentration of PFOA was analyzed in liver and blood plasma from control embryos and embryos exposed to PFOA (50, 250 and 1000 μg/egg). Five individual livers from each PFOA-treated group were analyzed. Very low PFOA concentrations were anticipated in the controls and therefore the amount of tissue was increased by pooling 2–3 livers, and five such pools were analyzed. Four plasma samples (50 μL) were analyzed from each group except the group exposed to 1000 μg PFOA/egg for which three samples were analyzed. Extraction blanks were included for each batch. The analyzed amount of liver homogenate was 100 mg for controls and 50 mg for PFOA-exposed embryos. Livers were homogenized using the bead mill Bullet Blender® Storm 24 (Next Advance, Inc. New York, USA) with stainless steel beads at speed 8 for 3 min. Plasma and liver samples were spiked with 50 ng of internal standard (^13C4-PFOA, Wellington, Guelph, Canada). Five milliliters of acetonitrile (Labscan, Gliwice, Poland) was added to the samples followed by vortex mixing, sonication (20 min), and centrifugation (10 000 g, 5 min). Extraction was performed twice for livers and once for plasma. One mL of supernatant from the extracts was transferred to a tube prepared with 50 mg ENVI-Carb™ 20/400 mesh (Supelco, Bellefonte, PA, USA) and 100 μL glacial acetic acid (Sigma-Aldrich). The carbon suspension was vortex mixed and then filtrated using a 0.2-μm GHP filter (Pall, East Hills, NY, USA). Filtrate (0.4 mL) was mixed with 2 ng of the recovery standard (^13C8-PFOA, Wellington Laboratories) and 0.6 mL 2 mM ammonium acetate was added. Analysis was performed using an Acquity UPLC coupled to a Xevo-TQS MS/MS (Waters Corporation, Milford, MA, USA) as described previously. The recovery standard ^13C8-PFOA was added before injection to assess the recoveries of the internal standard ^13C4-PFOA. The recoveries ranged between 75 and 94% (average 82%) for plasma and between 64 and 119% (average 84%) for liver.
# human PPARγ = tested on: human PPARγ; parameters: method as in PMID 16038868; conditions: reporter cell assay; read-out: EC50, activation of transcription through human PPARγ; cited from earlier work
# [3] = PFOA 1000 μg/egg, five embryos from replicate A
# [4] = group PFOA 1000 (1000 µg/egg), five embryos, replicate A only
compound,measurement,setting,value
"O=C(O)C(F)(F)C(F)(F)C(F)(F)C(F)(F)C(F)(F)C(F)(F)C(F)(F)F [PFOA, perfluorooctanoic acid]","Body weight, Mean ± SD",[1]; PFOA 50 μg/egg,4.2 ± 0.5 g
same,"Liver-somatic index, Mean ± SD",[1]; PFOA 50 μg/egg,1.7 ± 0.1%
same,"Body weight, Mean ± SD",[1]; PFOA 250 μg/egg,4.3 ± 0.4 g
same,"Liver-somatic index, Mean ± SD",[1]; PFOA 250 μg/egg,1.7 ± 0.2%
same,"Body weight, Mean ± SD",[1]; [3],4.6 ± 0.4 g
same,"Liver-somatic index, Mean ± SD",[1]; [3],2.0 ± 0.2%
same,Body weight,[1]; group PFOA 50 (µg/egg),4.2 g
same,Liver weight,[1]; group PFOA 50 (µg/egg),70.6 mg
same,Liver-somatic index,[1]; group PFOA 50 (µg/egg),1.7%
same,Body weight,[1]; group PFOA 250 (µg/egg),4.3 g
same,Liver weight,[1]; group PFOA 250 (µg/egg),72.7 mg
same,Liver-somatic index,[1]; group PFOA 250 (µg/egg),1.7%
same,Body weight,[1]; [4],4.6 g
same,Liver weight,[1]; [4],91.5 mg
same,Liver-somatic index,[1]; [4],2.0%
same,"Concentration in plasma, individual embryo","[2]; PFOA 50 µg/egg, female embryos",2453 ng/mL and 2350 ng/mL
same,"Concentration in plasma, individual embryo","[2]; PFOA 50 µg/egg, male embryos",1759 ng/mL
same,"Concentration in plasma, individual embryo","[2]; PFOA 250 µg/egg, female embryos",8562 ng/mL
same,"Concentration in plasma, individual embryo","[2]; PFOA 250 µg/egg, male embryos",5531 ng/mL and 5643 ng/mL
same,"Concentration in plasma, individual embryo",[2]; PFOA 1000 µg/egg,17963 ng/mL and 18228 ng/mL
same,concentration at 5 d,"[2]; 50 μg/egg, 50 μg PFOA/egg on E7, read-out: Mean PFOA concentration in plasma",2000 ng/mL
same,concentration at 5 d,"[2]; 50 µg/egg, PFOA 50 µg/egg, read-out: Concentration in plasma, Mean",2000 ng/mL
same,concentration at 5 d,"[2]; 50 µg/egg, PFOA 50 µg/egg, read-out: Concentration in plasma, individual embryo",1440 ng/mL
same,concentration at 5 d,"[2]; 250 μg/egg, 250 μg PFOA/egg on E7, read-out: Mean PFOA concentration in plasma",6300 ng/mL
same,concentration at 5 d,"[2]; 250 µg/egg, PFOA 250 µg/egg, read-out: Concentration in plasma, Mean",6300 ng/mL
same,concentration at 5 d,"[2]; 250 µg/egg, PFOA 250 µg/egg, read-out: Concentration in plasma, individual embryo",5480 ng/mL
same,concentration at 5 d,"[2]; 1000 μg/egg, 1000 μg PFOA/egg on E7, read-out: Mean PFOA concentration in plasma",18000 ng/mL
same,concentration at 5 d,"[2]; 1000 µg/egg, PFOA 1000 µg/egg, read-out: Concentration in plasma, Mean",17600 ng/mL
same,concentration at 5 d,"[2]; 1000 µg/egg, PFOA 1000 µg/egg, read-out: Concentration in plasma, individual embryo",16700 ng/mL
"CN(CCOc1ccc(CC2SC(=O)NC2=O)cc1)c1ccccn1 (stereo not shown) [Rosiglitazone, rosiglitazone, reference compound]",pEC50,human PPARγ,7.74
